Reference: article PMC7997032, “Organic synthesis and anti-influenza A virus activity of cyclobakuchiols A, B, C, and D” (PLoS ONE, 2021)
Where “and” joins values, the source holds several entries; their conditions need not be identical. Equal values may be shown once. Read-outs that look alike come from different tables or passages of the source.

Experiments:
A/PR/8/34 viral HA = system: A/PR/8/34 viral HA; design: method as in PMID 26446794; settings: cited from earlier work
A/PR/8/34 viral NA = system: A/PR/8/34 viral NA; design: method as in PMID 26446794; settings: cited from earlier work
[1] = system: canine interferon-β (Ifn-β); test: RT-qPCR of Ifn-β mRNA in MDCK cells with or without A/PR/8/34 virus; assay type: cell-based; settings: for MDCK IFN-b mRNA, ave / MDCK IFN-b mRNA, individual replicates: 12.5uM, relative to virus - DMSO; for MDCK IFN-b mRNA, ave: ave of #1-3 exp; for MDCK IFN-b mRNA, individual replicates: replicates 1-3 of #1, #2, #3 exp
A/WSN/33 virus [2] = test: Immunofluorescence staining of viral NP in influenza A virus-infected MDCK cells; settings: for percentage of influenza A NP-positive cells relative to DMSO: 24 h, Fig 4D; for NP/DAPI (%) ave: WSN
Description: MDCK cells were seeded on a 96-well plate at 1 × 10^4 cells/well. […] Each mixture was added to the cells at 37°C in the presence of 5% CO2. […] After influenza A viral infection for 24 h, the cells were fixed with 4% paraformaldehyde in phosphate-buffered saline (PBS) for 30 min at 4°C and subsequently permeabilized by the addition of 0.3% Triton X-100 for 20 min at 25°C. A mouse primary antibody was used to detect the NP of A/PR/8/34 or A/WSN/33 viruses (FluA-NP 4F1; SouthernBiotech, AL, USA). Alexa Fluor488-conjugated goat anti-mouse IgG (H + L) antibody (Thermo Fisher Scientific) was used as the secondary antibody. Cell nuclei were then stained using diamidino-2-phenylindole (DAPI) (Thermo Fisher Scientific). Wells were photographed using a fluorescence microscope (BIOREVO BZ-X700; Keyence, Osaka, Japan). The proportion of influenza A NP-positive cells per DAPI-positive cells was calculated based on measurements recorded using BZ-X Analyzer software (Keyence).

[3] = system: NAD(P)H quinone oxidoreductase 1 (Nqo1); test: RT-qPCR of Nqo1 mRNA in MDCK cells with or without A/PR/8/34 virus; assay type: cell-based, canine; settings: for NQO1 Canis lupus mRNA, ave / NQO1 Canis lupus mRNA, individual replicates: 12.5uM, MDCK, relative to virus - DMSO; for NQO1 Canis lupus mRNA, ave: ave of #1-3 exp; for NQO1 Canis lupus mRNA, individual replicates: replicates 1-3 of #1, #2, #3 exp
A/PR/8/34 virus [4] = assay type: cell-based
A/PR/8/34 virus [5] = test: Influenza A viral growth assay (viral titer of culture media); assay type: cell-based, influenza A H1N1 virus; design: viral titer of culture media, individual replicate / viral titer of culture media, ave: unit not given here
A/WSN/33 virus [6] = test: Viability of influenza A virus-infected MDCK cells by naphthol blue-black staining; assay type: cell-based, influenza A H1N1 virus; settings: A/WSN/33, MOI 10, 72 h, 0.4–25 μM
Description: MDCK cells were seeded on a 96-well plate (1 × 10^4 cells/well). 2–5 (0.4–25 μM) were mixed with A/PR/8/34, A/CA/7/09, or A/WSN/33 viruses in 10% FBS-supplemented growth medium at a multiplicity of infection (MOI) of ten. DMSO (0.004–1%) or 1 (0.4–25 μM) were used as negative or positive controls, respectively. […] After incubation, the cells were stained with naphthol blue–black, as previously described. Viable cells in each well were stained blue, whereas dead cells remained unstained.

A/WSN/33 virus [7] = test: Influenza A viral growth assay (viral titer of culture media); assay type: cell-based, influenza A H1N1 virus; settings: for viral titer of conditioned media compared with DMSO: A/WSN/34 as printed, 12.5 μM
MDCK cells = test: MTT assay (cytotoxicity against MDCK cells); assay type: cell-based, canine; settings: ≤50 μM, 24 or 72 h
In short: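 Compounds at 0.8–100 μM (final DMSO up to 1%) in DMEM with 1% BSA and 4 mM L-glutamine incubated with cells 24 or 72 h at 37°C, 5% CO2. Viability measured by MTT.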

A/PR/8/34 virus [8] = test: RT-qPCR of viral mRNAs (NP, NS1, PA, PB1, PB2, M2) in infected MDCK cells; assay type: cell-based, influenza A H1N1 virus
A/CA/7/09 viral NA = system: A/CA/7/09 viral NA; design: method as in PMID 26446794; settings: cited from earlier work
Nrf2 = Nrf2 reporter assay (dual luciferase system) in MDCK cells; assay type: cell-based, canine
[9] = system: recombinant A/PR/8/34 viral HA protein; design: method as in PMID 26446794; settings: cited from earlier work
A/CA/7/09 viral HA = system: A/CA/7/09 viral HA; design: method as in PMID 26446794; settings: cited from earlier work
[10] = 12.5 μM, 24h WB, average of 3 experiments
[11] = 12.5 μM, 24h WB, single experiment
[12] = 12.5 μM, 24 h post-infection, Fig 7C
[13] = MDCK cells, PR8 virus, relative to DMSO (about 1), ave of #1-3 exp (9 values)
[14] = MDCK cells, PR8 virus, relative to DMSO, replicates 1-3 of #1, #2, #3 exp

C=C[C@@](C)(/C=C/c1ccc(O)cc1)CCC=C(C)C [(+)-(S)-bakuchiol, reference compound]
inhibition of hemagglutination of chicken red blood cells (A/PR/8/34 viral HA): did not inhibit
inhibition of viral NA activity (A/PR/8/34 viral NA): did not inhibit
virus-induced upregulation of Ifn-β mRNA [1]: significantly reduced
MDCK IFN-b mRNA, ave ([1]; virus +): 3.367
MDCK IFN-b mRNA, individual replicates ([1]; virus +): 2.6311 and 8.162 and 4.8 and 5.795 and 3.073 and 1.349 and 1.382 and 0.9842 and 2.128
MDCK IFN-b mRNA, ave ([1]; virus -): 1.794
MDCK IFN-b mRNA, individual replicates ([1]; virus -): 0.2606 and 0.6947 and 2.008 and 8.353 and 0.6874 and 0.5651 and 1.697 and 0.7342 and 1.151
percentage of influenza A NP-positive cells relative to DMSO (A/WSN/33 virus [2]; A/WSN/33, 12.5 μM): significantly reduced
percentage of influenza A NP-positive cells relative to DMSO (A/WSN/33 virus [2]; A/WSN/33, 3.1–6.3 μM): did not significantly reduce
NP/DAPI (%) ave (A/WSN/33 virus [2]; 3.13uM, ave of 9 values (3 exp)): 23.4639%
NP/DAPI (%) ave (A/WSN/33 virus [2]; 6.25uM, ave of 9 values (3 exp)): 22.221%
NP/DAPI (%) ave (A/WSN/33 virus [2]; 12.5uM, ave of 9 values (3 exp)): 22.092%
NP/DAPI (%) ave (A/WSN/33 virus [2]; 25uM, ave of 9 values (3 exp)): 25.1439%
NP/DAPI (%) ave (A/WSN/33 virus [2]; ave summary, 3.13%): 23.4639%
NP/DAPI (%) ave (A/WSN/33 virus [2]; ave summary, 6.25%): 22.221%
NP/DAPI (%) ave (A/WSN/33 virus [2]; ave summary, 12.50%): 22.092%
NP/DAPI (%) ave (A/WSN/33 virus [2]; ave summary, 25%): 25.1439%
relative mRNA level of Nqo1 compared with DMSO [3]: significantly upregulated
NQO1 Canis lupus mRNA, ave ([3]; virus + (PR8)): 2.213
NQO1 Canis lupus mRNA, individual replicates ([3]; virus + (PR8)): 2.486 and 2.782 and 2.118 and 2.457 and 1.645 and 1.778 and 1.772 and 2.442 and 2.434
NQO1 Canis lupus mRNA, ave ([3]; virus -): 1.91
NQO1 Canis lupus mRNA, individual replicates ([3]; virus -): 1.8342 and 2.199 and 2.0999 and 1.939 and 1.851 and 1.6659 and 2.003 and 1.832 and 1.767
relative mRNA level of Nqo1 compared with DMSO ([3]; without A/PR/8/34 virus, 12.5 μM, 24 h): significantly upregulated
expression of NP and NS1 proteins compared with DMSO (western blot) (A/PR/8/34 virus [4]; 12.5 μM, 8, 12 or 24 h post-infection): reduced
NP/b-actin ave (A/PR/8/34 virus [4]; [10]): 0.4577
NS1/b-actin ave (A/PR/8/34 virus [4]; [10]): 0.476
NP mean (western blot signal intensity, ImageJ) (A/PR/8/34 virus [4]; [11]): 41.483 and 67.678 and 82.727
NS1/b-actin (A/PR/8/34 virus [4]; [11]): 0.411 and 0.4433 and 0.5737
NS1 mean (western blot signal intensity, ImageJ) (A/PR/8/34 virus [4]; [11]): 69.425 and 77.937 and 55.734
expression level of NP protein compared with the 4 or 5 treatment groups (A/PR/8/34 virus [4]; [12]): significantly reduced
expression levels of NP or NS1 proteins from signal intensities compared with DMSO (A/PR/8/34 virus [4]; [12]): significantly reduced
viral titer of culture media, ave (A/PR/8/34 virus [5]; A/PR/8/34 (PR8), 12.5uM, 12h, average of #1-3 exp (n=9)): 23333.3
viral titer of conditioned media compared with DMSO (A/PR/8/34 virus [5]; A/PR/8/34, 12.5 μM, 12–72 h): significantly reduced
naphthol blue-black staining of infected cells (A/WSN/33 virus [6]): not stained
viral titer of culture media, ave (A/WSN/33 virus [7]; A/WSN/33 (WSN), 12.5uM, 12h, average of #1-3 exp (n=9)): 15811.1
viral titer of conditioned media compared with DMSO (A/WSN/33 virus [7]; 48–72 h): not reduced
viral titer of conditioned media compared with DMSO (A/WSN/33 virus [7]; 24 h): significantly reduced
cell viability / toxicity (MTT) (MDCK cells): not affected
reduction in the level of NP mRNA compared with 4 and 5 (A/PR/8/34 virus [8]; 12.5 μM, 24 h, Fig 6A): significantly stronger
reduction in the level of PB2 mRNA compared with 5 (A/PR/8/34 virus [8]; 12.5 μM, 24 h, Fig 6E): significantly stronger
relative mRNA expression levels of viral genes (NP, NS1, PA, PB1, PB2, M2) compared with DMSO (A/PR/8/34 virus [8]; 12.5 μM, MOI 0.1, 24 h): significantly decreased
PR8 NP gene expression qPCR, ave (A/PR/8/34 virus [8]; MDCK PR8, NP mRNA, relative (DMSO about 1), average of #1-3 exp (n=9)): 0.01761
PR8 NP gene expression qPCR, individual replicate (A/PR/8/34 virus [8]; MDCK PR8, NP mRNA, relative (DMSO about 1), replicates of #1-3 exp): 0.006615 and 0.02549 and 0.02199 and 0.02377 and 0.03127 and 0.01502 and 0.01903 and 0.00944 and 0.005898
PR8 NS1 gene expression qPCR, ave (A/PR/8/34 virus [8]; MDCK PR8, NS1 mRNA, relative (DMSO about 1), average of #1-3 exp (n=9)): 0.01277
PR8 NS1 gene expression qPCR, individual replicate (A/PR/8/34 virus [8]; MDCK PR8, NS1 mRNA, relative (DMSO about 1), replicates of #1-3 exp): 0.005751 and 0.01688 and 0.01532 and 0.01756 and 0.02149 and 0.008029 and 0.01283 and 0.01159 and 0.005477
PR8 PA gene expression qPCR, ave (A/PR/8/34 virus [8]; MDCK PR8, PA mRNA, relative (DMSO about 1), average of #1-3 exp (n=9)): 0.01401
PR8 PA gene expression qPCR, individual replicate (A/PR/8/34 virus [8]; MDCK PR8, PA mRNA, relative (DMSO about 1), replicates of #1-3 exp): 0.007199 and 0.01835 and 0.01386 and 0.0158 and 0.019 and 0.01338 and 0.01452 and 0.01667 and 0.00733
PR8 M2 gene expression qPCR, ave (A/PR/8/34 virus [8]; [13]): 0.01399
PR8 PB1 gene expression qPCR, ave (A/PR/8/34 virus [8]; [13]): 0.009536
PR8 PB2 gene expression qPCR, ave (A/PR/8/34 virus [8]; [13]): 0.01448
PR8 M2 gene expression qPCR, individual replicates (A/PR/8/34 virus [8]; [14]): 0.006766 and 0.02094 and 0.01741 and 0.01624 and 0.02057 and 0.01274 and 0.01424 and 0.01232 and 0.004647
PR8 PB1 gene expression qPCR, individual replicates (A/PR/8/34 virus [8]; [14]): 0.005288 and 0.01134 and 0.00694 and 0.008199 and 0.02025 and 0.01044 and 0.005541 and 0.01144 and 0.006386
PR8 PB2 gene expression qPCR, individual replicates (A/PR/8/34 virus [8]; [14]): 0.00629 and 0.02178 and 0.01747 and 0.01955 and 0.0211 and 0.01165 and 0.01377 and 0.01287 and 0.005833
inhibition of viral NA activity (A/CA/7/09 viral NA): did not inhibit
Nrf2 activation (reporter assay) in contrast to DMSO (Nrf2; 12.5 μM, 24 h, MDCK cells): induce Nrf2 activation
pNQO1-ARE-Luc NRF2 reporter assay, ave (Nrf2; 12.5uM, relative to DMSO trans+, ave of #1-3 exp): 1.302
pNQO1-ARE-Luc NRF2 reporter assay, individual replicates (Nrf2; 12.5uM, relative to DMSO trans+, two values each of #1, #2, #3 exp): 1.091 and 1.274 and 1.491 and 1.4074 and 1.544 and 1.002
inhibition of trypsin digestion of recombinant HA protein [9]: did not inhibit
inhibition of hemagglutination of chicken red blood cells (A/CA/7/09 viral HA): did not inhibit
